The text below walks through data of patent US20080221086A1, “Novel Inhibitors of Glutaminyl Cyclase” (PROBIODRUG AG, priority 2006, published 2008).

SMILES strings stand for the structures.

Sequence of hQC (Q16769 29-361): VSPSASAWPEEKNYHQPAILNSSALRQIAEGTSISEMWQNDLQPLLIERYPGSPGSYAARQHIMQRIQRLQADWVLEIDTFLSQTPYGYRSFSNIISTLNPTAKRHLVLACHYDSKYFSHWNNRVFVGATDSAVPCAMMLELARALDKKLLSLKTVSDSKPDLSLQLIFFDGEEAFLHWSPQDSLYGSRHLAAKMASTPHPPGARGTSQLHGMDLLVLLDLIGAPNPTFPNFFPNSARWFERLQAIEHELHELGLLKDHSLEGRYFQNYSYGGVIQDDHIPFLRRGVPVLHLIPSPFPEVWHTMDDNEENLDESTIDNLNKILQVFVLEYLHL

The target in the first assay is hQC (Homo sapiens, UniProt Q16769). The experiment in a line: Fluorometric assay of glutaminyl cyclase (QC) inhibition, H-Gln-βNA or H-Gln-AMC substrate. To be noted: compound from preparative synthesis, purified by chromatography; fluorescent assay; read-out: IC50 hQC. The class given is biochemical. The gist of the method:
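Ki values were obtained by fitting progress curves to a competitive-inhibition equation, and the rapid screen used 4 mM inhibitor with substrate at 1 KM. Both readouts coupled pyroglutamyl aminopeptidase at pH 8.0 and 30° C: H-Gln-βNA at 0.2 mM (ex/em 320/410 nm) or H-Gln-AMC (380/460 nm).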
In general, IC50 refers to the concentration that gives 50% inhibition. Take `O=C1N/C(=N\[C@H]2CCc3ccccc32)C(c2ccc(Br)cc2)N1c1ccc2[nH]cnc2c1` (stereo partly drawn) [Compound 333, 1-(1H-Benzoimidazol-5-yl)-5-(4-bromo-phenyl)-4-((S)-indan-1-ylimino)-imidazolidin-2-one]: the IC50 was 0.0282 µM.

Staying with this assay, now noted: read-out: IC50.
For `C/N=C1\NC(=O)N(c2ccc3[nH]cnc3c2)C1c1coc2ccc(C)cc2c1=O` (centres unmarked) [Compound 328, 1-(1H-Benzoimidazol-5-yl)-4-methylimino-5-(6-methyl-4-oxo-4H-chromen-3-yl)-imidazolidin-2-one], the IC50 is 1.3 µM.

Take `Cc1ccc(C2/C(=N/C(C)(C)CC(C)(C)C)NC(=O)N2c2ccc3nc[nH]c3c2)c(C)c1` (centres unmarked) [Compound 262, 1-(3H-Benzoimidazol-5-yl)-5-(2,4-dimethyl-phenyl)-4-1,1,3,3-tetramethyl-butylimino-imidazolidin-2-one]: the IC50 is 1.3 µM.

As for `O=C1N/C(=N\C2CCCC2)C(c2coc3ccccc3c2=O)N1c1ccc2[nH]cnc2c1` (centres unmarked) [Compound 246, 1-(1H-Benzoimidazol-5-yl)-4-cyclopentylimino-5-(4-oxo-4H-chromen-3-yl)-imidazolidin-2-one], the IC50 was determined as 7.6 µM.

Take `S=C1N/C(=N\C2CCCCC2)C(c2cc3c(cc2Br)OCO3)N1c1ccc2nc[nH]c2c1` (centres unmarked) [Compound 266, 1-(3H-Benzoimidazol-5-yl)-5-(6-bromo-benzo1,3dioxol-5-yl)-4-cyclohexylimino-imidazolidine-2-thione]: the 50% inhibitory concentration (IC50) is 8.5 µM.

Consider `O=C1N/C(=N\CCCc2ccccc2)C(c2coc3ccccc3c2=O)N1c1ccc2[nH]cnc2c1` (centres unmarked) [Compound 209, 1-(1H-Benzoimidazol-5-yl)-5-(4-oxo-4H-chromen-3-yl)-4-3-phenyl-propylimino-imidazolidin-2-one], for which the IC50 came out at 1.3 µM.

In the case of `S=C1NC(=NC2CCc3ccccc32)C(c2ccnc3ccccc23)N1c1ccc2[nH]cnc2c1` (centres unmarked) [Compound 191, 1-(1H-Benzoimidazol-5-yl)-4-indan-1-ylimino-5-quinolin-4-yl-imidazolidine-2-thione], the IC50 worked out at 9.4 µM.

`S=C1NC(=Nc2ccccc2Br)C(c2ccc3[nH]ccc3c2)N1c1ccc2nc[nH]c2c1` (centres unmarked) [Compound 291, 1-(3H-Benzoimidazol-5-yl)-4-2-bromo-phenylimino-5-(1H-indol-5-yl)-imidazolidine-2-thione]: the IC50 amounted to 4 µM.

As to `O=C1CCCN1CC/N=C1\NC(=S)N(c2ccc3[nH]cnc3c2)C1c1cccc(Br)c1` (centres unmarked) [Compound 175, 1-(2-(1-(1H-benzo[d]imidazol-5-yl)-5-(3-bromophenyl)-2-thioxoimidazolidin-4-ylideneamino)ethyl)pyrrolidin-2-one], the IC50 turned out to be 4.9 µM.

With `S=C1N/C(=N\C2CCCC2)C(c2ccc(Cl)cc2)N1c1ccc2[nH]cnc2c1` (centres unmarked) [Compound 272, 1-(1H-Benzoimidazol-5-yl)-5-(4-chloro-phenyl)-4-cyclopentylimino-imidazolidine-2-thione], the half-maximal inhibitory concentration (IC50) was 8.5 µM.

As to `S=C1N/C(=N\C2CCCC2)C(c2ccc(N3CCCC3)cc2)N1c1ccc2[nH]cnc2c1` (centres unmarked) [Compound 210, 1-(1H-Benzoimidazol-5-yl)-4-cyclopentylimino-5-(4-pyrrolidin-1-yl-phenyl)-imidazolidine-2-thione], the IC50 worked out at 3.1 µM.

Consider `O=C(CN=C1NC(=S)N(c2ccc3nc[nH]c3c2)C1c1cc(Br)cs1)N1CCCCC1` (centres unmarked) [Compound 187, 2-(1-(1H-benzo[d]imidazol-6-yl)-5-(4-bromothiophen-2-yl)-2-thioxoimidazolidin-4-ylideneamino)-1-(piperidin-1-yl)ethanone], for which the half-maximal inhibitory concentration (IC50) came to 0.4 µM.

Turning to `CCC1/C(=N\CCc2c[nH]c3ccccc23)NC(=O)N1CCCn1ccnc1` (centres unmarked) [Compound 60, 5-Ethyl-1-(3-imidazol-1-yl-propyl)-4-2-(1H-indol-3-yl)-ethylimino-imidazolidin-2-one], the IC50 turned out to be 5.8 µM.

In the case of `O=C(C/N=C1/NC(=O)N(CCCn2ccnc2)C1c1ccc(F)cc1)N1CCc2ccccc2C1` (centres unmarked) [Compound 78, 4-2-(3,4-Dihydro-1H-isoquinolin-2-yl)-2-oxo-ethylimino-5-(4-fluoro-phenyl)-1-(3-imidazol-1-yl-propyl)-imidazolidin-2-one], the half-maximal inhibitory concentration (IC50) was 3.1 µM.

Consider `O=C1N/C(=N\C2CCCCC2)C(c2ccccc2Cl)N1CCCn1ccnc1` (centres unmarked) [Compound 6, 5-(2-Chloro-phenyl)-4-cyclohexylimino-1-(3-imidazol-1-yl-propyl)-imidazolidin-2-one], for which the IC50 came out at 7.2 µM.

For `O=C1N/C(=N/CCc2c[nH]c3ccccc23)C(C2CCC=CO2)N1CCCn1ccnc1` (centres unmarked) [Compound 51, 5-(3,4-Dihydro-2H-pyran-2-yl)-1-(3-imidazol-1-yl-propyl)-4-2-(1H-indol-3-yl)-ethylimino-imidazolidin-2-one], the IC50 came to 5.8 µM.

In the case of `O=C1N/C(=N\[C@H]2CCc3ccccc32)C(c2ccc(Br)cc2)N1c1ccc2[nH]cnc2c1` (stereo partly drawn) [Compound 333, 1-(1H-Benzoimidazol-5-yl)-5-(4-bromo-phenyl)-4-((S)-indan-1-ylimino)-imidazolidin-2-one], the IC50 turned out to be 0.004 µM.

Turning to `S=C1NC(=NCn2nnc3ccccc32)C(c2ccnc3ccccc23)N1c1ccc2nc[nH]c2c1` (centres unmarked) [Compound 279, 1-(3H-Benzoimidazol-5-yl)-4-benzotriazol-1-ylmethylimino-5-quinolin-4-yl-imidazolidine-2-thione], the IC50 was found to be 2.2 µM.

For the compound `O=C1N/C(=N\c2ccc3c(c2)OCCO3)C(c2ccccc2Cl)N1CCCn1ccnc1` (centres unmarked) [Compound 34, 5-(2-Chloro-phenyl)-4-2,3-dihydro-benzo1,4dioxin-6-ylimino-1-(3-imidazol-1-yl-propyl)-imidazolidin-2-one], the IC50 is 4 µM.

`O=C1N/C(=N\C2CCCCC2)C(C2CCC=CO2)N1CCCn1ccnc1` (centres unmarked) [Compound 2, 4-Cyclohexylimino-5-(3,4-dihydro-2H-pyran-2-yl)-1-(3-imidazol-1-yl-propyl)-imidazolidin-2-one]: the IC50 was found to be 5 µM.

For the compound `O=C(C/N=C1/NC(=O)N(c2ccc3[nH]cnc3c2)C1c1ccc(Cl)cc1)N1CCC(O)C1` (centres unmarked) [Compound 340, 1-(1H-Benzoimidazol-5-yl)-5-(4-chloro-phenyl)-4-2-(3-hydroxy-pyrrolidin-1-yl)-2-oxo-ethylimino-imidazolidin-2-one], the IC50 turned out to be 4 µM.

On to `S=C1N/C(=N\C(Cc2ccccc2)c2ccccc2)C(c2cccc(Br)c2)N1c1ccc2[nH]cnc2c1` (centres unmarked) [Compound 164, 1-(1H-Benzoimidazol-5-yl)-5-(3-bromo-phenyl)-4-1,2-diphenyl-ethylimino-imidazolidine-2-thione], for which the IC50 was 9.4 µM.

On to `C/N=C1/NC(=O)N(c2ccc3[nH]cnc3c2)C1c1c[nH]c2ccc(Cl)cc12` (centres unmarked) [Compound 223, 1-(1H-Benzoimidazol-5-yl)-5-(5-chloro-1H-indol-3-yl)-4-methylimino-imidazolidin-2-one], for which the IC50 was determined as 0.4 µM.

With `CCCC1/C(=N\CCC(c2ccccc2)c2ccccc2)NC(=O)N1CCCn1ccnc1` (centres unmarked) [Compound 104, 4-3,3-Diphenyl-propylimino-1-(3-imidazol-1-yl-propyl)-5-propyl-imidazolidin-2-one], the IC50 came out at 9.4 µM.

For the compound `O=C(C/N=C1/NC(=O)N(CCCn2ccnc2)C1c1ccco1)N1CCc2ccccc2C1` (centres unmarked) [Compound 73, 4-2-(3,4-Dihydro-1H-isoquinolin-2-yl)-2-oxo-ethylimino-5-furan-2-yl-1-(3-imidazol-1-yl-propyl)-imidazolidin-2-one], the IC50 was 6.7 µM.

For `Cc1nc[nH]c1C1/C(=N/C2CCCCC2O)NC(=O)N1c1ccc2[nH]cnc2c1` (centres unmarked) [Compound 142, 3-(1H-Benzoimidazol-5-yl)-5-2-hydroxy-cyclohexylimino-5′-methyl-1,3,4,5-tetrahydro-3′H-4,4′biimidazolyl-2-one], the 50% inhibitory concentration (IC50) turned out to be 8.5 µM.
